Measured values: patent US20260001914A1, “MACROCYCLIC PEPTIDES TARGETING KRAS” (Merck Sharp & Dohme LLC, priority 2022, published 2026)
*1 amine or outer side, *2 acyl side, *3 side chain or, on linkers, in order; H or OH if unused. Where a SMILES comes first, the peptide text is derived from it. Bridges are numbered along the chain shown (N, C = ends). [ ]: non-standard residue; d: D form. X48 = CCCC[C@@H](/C=C\[C@@H](Cc1cccnc1)C(=O)[*:2])N[*:1]; NMeNva(5-imidazol-1-yl) = CN[C@@H](CCCn1ccnc1)C(=O)O; Phe(4-guanidino) = N=C(N)Nc1ccc(C[C@H](N)C(=O)O)cc1; X18 = CNC(=N)N(C)c1ccc(C[C@H](N[*:1])C(=O)[*:2])cc1; X23 = O=C([C@H](Cc1ccc(C(F)(F)F)nc1)N[*:1])[*:2]; Ala(pyrimidin-5-yl) = N[C@@H](Cc1cncnc1)C(=O)O; Gly(N-(CH2)3-guanidino) = N=C(N)NCCCNCC(=O)O; NMe3Pal(6-Me) = CN[C@@H](Cc1ccc(C)nc1)C(=O)O; X6 = O=C([C@H](Cc1cnn(C2COC2)c1)N[*:1])[*:2]; 3Pal(6-OMe) = COc1ccc(C[C@H](N)C(=O)O)cn1; X20 = CN([C@@H](Cc1cnco1)C(=O)[*:2])[*:1]; X3 = CN([C@@H](Cc1cncnc1)C(=O)[*:2])[*:1]; NMeAha = CN[C@@H](CCN=[N+]=[N-])C(=O)O; Phe(2-CN) = N#Cc1ccccc1C[C@H](N)C(=O)O; X28 = O=C([C@H](Cc1ncccn1)N[*:1])[*:2]; X35 = CN([C@@H](CCCF)C(=O)[*:2])[*:1]; Ala(cPent) = N[C@@H](CC1CCCC1)C(=O)O; Phe(2-F) = N[C@@H](Cc1ccccc1F)C(=O)O; NMe3Pal = CN[C@@H](Cc1cccnc1)C(=O)O; X1 = O=C(C12CC(CN[*:1])(C1)C2)[*:2]; NMeOrn(Me) = CNCCC[C@H](NC)C(=O)O; Ala(cPr) = N[C@@H](CC1CC1)C(=O)O; NMeF = CN[C@@H](Cc1ccccc1)C(=O)O; PhLac = O=C(O)[C@@H](O)Cc1ccccc1; X4 = O=C([C@H](CCCF)N[*:1])[*:2]; 3Pal = N[C@@H](Cc1cccnc1)C(=O)O; Ahp(2) = CCCCC[C@H](N)C(=O)O; Cba = N[C@@H](CC1CCC1)C(=O)O; hLeu = CC(C)CC[C@H](N)C(=O)O; αMeC = C[C@](N)(CS)C(=O)O; NMeA = CN[C@@H](C)C(=O)O; Nle = CCCC[C@H](N)C(=O)O

Biological target: phosphorylation levels of ERK1/2 in AsPC-1 (homozygous KRAS-G12D) cells (Homo sapiens, UniProt P01116, G12D)
Test: Cellular phospho-ERK assay in AsPC-1 cells (Alpha Screen), assay medium without fetal bovine serum;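 note: signal taken as phospho-ERK over total ERK per well, both detected in one multiplex bead assay, EC50 from four-parameter logistic fit of dose-response curves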
Assay type: cell-based
Details: phospho-ERK AlphaScreen, 18 h

Sequence of phosphorylation levels of ERK1/2 in AsPC-1 (homozygous KRAS-G12D) cells (P01116 1-186 G12D): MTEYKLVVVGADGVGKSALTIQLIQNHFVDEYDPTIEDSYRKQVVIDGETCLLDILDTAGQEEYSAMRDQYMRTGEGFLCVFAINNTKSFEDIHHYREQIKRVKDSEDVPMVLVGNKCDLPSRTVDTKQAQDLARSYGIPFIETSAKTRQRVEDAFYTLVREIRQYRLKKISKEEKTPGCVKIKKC

CC(C)CC[C@@H]1NC(=O)[C@H](Cc2ccccc2F)NC(=O)[C@H](CC2CC2)NC(=O)[C@H](Cc2cnn(C3COC3)c2)NC(=O)[C@H](C)N(C)C(=O)[C@H](Cc2ccccc2)OC(=O)C23CC(CNC(=O)[C@H](Cc4cccnc4)N(C)C1=O)(C2)C3 [compound 301, cyclo(FLac-NMeA-AlaPyz1Ox-cPrA-Phe2F-hL-NMe3Pal-amBCP)] (cyclo([Ala(cPr)][Phe(2-F)][hLeu][NMe3Pal][X1][PhLac][NMeA][X6]))
EC50: 39.5 µM

CCCC[C@@H]1NC(=O)[C@H](Cc2ccccc2F)NC(=O)C(CC2CC(F)(F)C2)NC(=O)[C@H](Cc2cncnc2)NC(=O)[C@H](C)N(C)C(=O)[C@H](Cc2ccccc2)OC(=O)C23CC(CNC(=O)[C@H](Cc4cccnc4)N(C)C1=O)(C2)C3 (single isomer, unassigned) [compound 122, cyclo(FLac-NMeA-PyrimAla-rF2Cba-Phe2F-Nle-NMe3Pal-amBCP)]
EC50: > 50.8 µM

CCCCC[C@@H]1NC(=O)[C@H](Cc2ccc(OC)cc2)NC(=O)[C@H](CC2CCC2)NC(=O)[C@H](Cc2cccnc2)NC(=O)[C@H](CCCNC(=N)N)NC(=O)[C@H](Cc2ccccc2)NC(=O)CSC[C@@](C)(C(N)=O)NC(=O)[C@H](Cc2cnco2)N(C)C1=O [compound 379, cyclo(F-R-3Pal-cBuA-TyrOMe-Ahp-NMeAla5Oxa-aMeCl-ClAc)] ({CH2CO}-FR[3Pal][Cba]Y(Me)[Ahp(2)][X20][αMeC]-NH2; thioether N-8)
EC50: > 50.8 µM

CC(C)CC[C@@H]1NC(=O)[C@H](Cc2ccccc2F)NC(=O)[C@H](CCCF)NC(=O)[C@H](Cc2cncnc2)NC(=O)[C@H](C)N(C)C(=O)[C@H](Cc2ccccc2)OC(=O)C23CC(CNC(=O)[C@H](Cc4ccccc4)N(C)C1=O)(C2)C3 [compound 133, cyclo(FLac-NMeA-PyrimAla-NvaF-Phe2F-hL-NMeF-amBCP)] (cyclo([NMeA][Ala(pyrimidin-5-yl)][X4][Phe(2-F)][hLeu][NMeF][X1][PhLac]))
EC50: 2.26 µM

CCCC[C@@H]1NC(=O)[C@H](Cc2cncnc2)NC(=O)[C@H](C)N(C)C(=O)[C@H](Cc2ccccc2)OC(=O)C23CC(CNC(=O)[C@H](Cc4ccccc4)N(C)C(=O)[C@H](CCCC)NC(=O)[C@H](Cc4ccccc4F)NC1=O)(C2)C3 [compound 230, cyclo(FLac-NMeA-PyrimAla-Nle-Phe2F-Nle-NMeF-amBCP)] (cyclo([NMeA][Ala(pyrimidin-5-yl)][Nle][Phe(2-F)][Nle][NMeF][X1][PhLac]))
EC50: 0.59 µM

CCCCC[C@@H]1NC(=O)[C@H](Cc2ccccc2C#N)NC(=O)[C@H](CC2CCC2)NC(=O)[C@H](Cc2cccnc2)NC(=O)[C@H](CCCNC(=N)N)NC(=O)[C@H](Cc2ccccc2)NC(=O)CSC[C@@](C)(C(N)=O)NC(=O)[C@H](Cc2ccccc2)N(C)C1=O [compound 375, cyclo(F-R-3Pal-cBuA-Phe2CN-Ahp-NMeF-aMeCl-ClAc)] ({CH2CO}-FR[3Pal][Cba][Phe(2-CN)][Ahp(2)][NMeF][αMeC]-NH2; thioether N-8)
EC50: > 50.8 µM

CCCC[C@@H]1NC(=O)[C@H](Cc2ccc(C(F)(F)F)nc2)NC(=O)[C@H](CCN=[N+]=[N-])N(C)C(=O)[C@H](Cc2ccccc2)OC(=O)C23CC(CNC(=O)[C@H](Cc4cccnc4)N(C)C(=O)[C@H](CCCC)NC(=O)[C@H](Cc4ccccc4F)NC1=O)(C2)C3 [compound 241, cyclo(FLac-NMeDabN3-4CF33Pal-Nle-Phe2F-Nle-NMe3Pal-amBCP)] (cyclo([NMe3Pal][X1][PhLac][NMeAha][X23][Nle][Phe(2-F)][Nle]))
EC50: 6.12 µM

CCCCC[C@@H]1NC(=O)[C@H](Cc2ccc(OC)cc2)NC(=O)[C@H](CC2CCC2)NC(=O)[C@H](Cc2cccnc2)NC(=O)[C@H](CCCNC(=N)N)NC(=O)[C@H](Cc2ccccc2)NC(=O)CSC[C@@](C)(C(N)=O)NC(=O)[C@H](Cc2ccc(C)nc2)N(C)C1=O [compound 377, cyclo(F-R-3Pal-cBuA-TyrOMe-Ahp-NMe3Pal4Me-aMeCl-ClAc)] ({CH2CO}-FR[3Pal][Cba]Y(Me)[Ahp(2)][NMe3Pal(6-Me)][αMeC]-NH2; thioether N-8)
EC50: > 50.8 µM

CCCC[C@@H]1NC(=O)[C@H](Cc2cccnc2)NC(=O)[C@H](C)N(C)C(=O)[C@H](Cc2ccc(O)cc2)NC(=O)C23CC(CNC(=O)[C@H](Cc4cccnc4)N(C)C(=O)[C@H](CCCC)NC(=O)[C@H](Cc4ccccc4F)NC1=O)(C2)C3 [compound 168, cyclo(Y-NMeA-3Pal-Nle-Phe2F-Nle-NMe3Pal-amBCP)] (cyclo(Y[NMeA][3Pal][Nle][Phe(2-F)][Nle][NMe3Pal][X1]))
EC50: 46.4 µM

CCCC[C@@H]1NC(=O)[C@H](Cc2ccccc2F)NC(=O)[C@H](CCCF)NC(=O)[C@H](Cc2cccnc2)NC(=O)[C@H](C)N(C)C(=O)[C@H](Cc2ccccc2)OC(=O)C23CC(CNC(=O)[C@H](Cc4cccnc4)N(C)C1=O)(C2)C3 [compound 120, cyclo(FLac-NMeA-3Pal-NvaF-Phe2F-Nle-NMe3Pal-amBCP)] (cyclo([3Pal][X4][Phe(2-F)][Nle][NMe3Pal][X1][PhLac][NMeA]))
EC50: > 50.8 µM

CCCCC[C@@H]1NC(=O)[C@H](Cc2ccc(OC)cc2)NC(=O)[C@H](CC2CCC2)NC(=O)[C@H](Cc2cccnc2)NC(=O)[C@H](CCCNC)N(C)C(=O)[C@H](Cc2ccccc2)NC(=O)CSC[C@@](C)(C(N)=O)NC(=O)[C@H](Cc2ccc(C)nc2)N(C)C1=O [compound 393, cyclo(F-NMeOrnMe-3Pal-cBuA-TyrOMe-Ahp-NMe3Pal4Me-aMeCl-ClAc)] ({CH2CO}-F[NMeOrn(Me)][3Pal][Cba]Y(Me)[Ahp(2)][NMe3Pal(6-Me)][αMeC]-NH2; thioether N-8)
EC50: > 50.8 µM

CCCCC[C@@H]1NC(=O)[C@H](Cc2ccc(OC)cc2)NC(=O)[C@H](CC2CCC2)NC(=O)[C@H](Cc2ccc(OC)nc2)NC(=O)[C@H](CCCNC(=N)N)NC(=O)[C@H](Cc2ccccc2)NC(=O)CSC[C@@](C)(C(N)=O)NC(=O)[C@H](Cc2ccccc2)N(C)C1=O [compound 365, cyclo(F-R-40Me3Pal-cBuA-TyrOMe-Ahp-NMeF-aMeCl-ClAc)] ({CH2CO}-FR[3Pal(6-OMe)][Cba]Y(Me)[Ahp(2)][NMeF][αMeC]-NH2; thioether N-8)
EC50: > 50.8 µM

CC(C)CC[C@@H]1NC(=O)[C@H](Cc2ccccc2F)NC(=O)[C@H](CC2CCCC2)NC(=O)[C@H](Cc2cncnc2)NC(=O)[C@H](C)N(C)C(=O)[C@H](Cc2ccccc2)OC(=O)C23CC(CNC(=O)[C@H](Cc4cncnc4)N(C)C1=O)(C2)C3 [compound 335, cyclo(FLac-NMeA-PyrimAla-cPeA-Phe2F-hL-NMeAlaPyrim-amBCP)] (cyclo([Ala(cPent)][Phe(2-F)][hLeu][X3][X1][PhLac][NMeA][Ala(pyrimidin-5-yl)]))
EC50: 5.27 µM

CC(C)CC[C@@H]1NC(=O)[C@H](Cc2ccccc2F)NC(=O)[C@H](CC2CC2)NC(=O)[C@H](Cc2ncccn2)NC(=O)[C@H](C)N(C)C(=O)[C@H](Cc2ccccc2)OC(=O)C23CC(CNC(=O)[C@H](Cc4ccccc4)N(C)C1=O)(C2)C3 [compound 281, cyclo(FLac-NMeA-2PyrimAla-cPrA-Phe2F-hL-NMeF-amBCP)] (cyclo([Ala(cPr)][Phe(2-F)][hLeu][NMeF][X1][PhLac][NMeA][X28]))
EC50: 9.89 µM

CCCC[C@H]1/C=C\[C@@H](Cc2cccnc2)C(=O)NCC23CC(C2)(C3)C(=O)O[C@@H](Cc2ccccc2)C(=O)N(C)[C@@H](C)C(=O)N[C@@H](Cc2cncnc2)C(=O)N[C@@H](CCCC)C(=O)N[C@@H](Cc2ccccc2F)C(=O)N1 [SEQ ID NO: 137, cyclo(FLac-NMeA- PyrimAla-Nle-Phe2F- Nlecalken3Pal-amBCP)] (cyclo([NMeA][Ala(pyrimidin-5-yl)][Nle][Phe(2-F)][X48][X1][PhLac]))
EC50: 11.2 µM

CCCC[C@@H]1NC(=O)[C@H](Cc2ccc(N(C)C(=N)NC)cc2)NC(=O)[C@H](C)N(C)C(=O)[C@H](Cc2ccccc2)OC(=O)CSC[C@@](C)(C(N)=O)NC(=O)[C@H](Cc2cccnc2)N(C)C(=O)[C@H](CCCC)NC(=O)[C@H](Cc2ccccc2F)NC1=O [compound 397, cyclo(FLac-NMeA-Phe4GnMeMe-Nle-Phe2F-Nle-NMe3Pal-aMeCl-ClAc)] ({CH2CO}-[PhLac][NMeA][X18][Nle][Phe(2-F)][Nle][NMe3Pal][αMeC]-NH2; thioether N-8)
EC50: > 50.8 µM

CCCC[C@@H]1NC(=O)[C@H](Cc2cccnc2)NC(=O)[C@H](C)N(C)C(=O)[C@H](Cc2ccccc2)OC(=O)CSC[C@@](C)(C(N)=O)NC(=O)[C@H](Cc2cccnc2)N(C)C(=O)[C@H](CCCC)NC(=O)[C@H](Cc2ccccc2F)NC1=O [compound 398, cyclo(FLac-NMeA-3Pal-Nlc-Phe2F-Nle-NMe3Pal-aMeCl-ClAc)] ({CH2CO}-[PhLac][NMeA][3Pal][Nle][Phe(2-F)][Nle][NMe3Pal][αMeC]-NH2; thioether N-8)
EC50: 40.7 µM

CCCC[C@@H]1NC(=O)[C@H](Cc2cncnc2)NC(=O)[C@H](CCCn2ccnc2)N(C)C(=O)[C@H](Cc2ccccc2)OC(=O)C23CC(CNC(=O)[C@H](Cc4cccnc4)N(C)C(=O)[C@H](CCCC)NC(=O)[C@H](Cc4ccccc4F)NC1=O)(C2)C3 [compound 240, cyclo(FLac-NMeNvalmid-PyrimAla-Nle-Phe2F-Nle-NMe3Pal-amBCP)] (cyclo([NMe3Pal][X1][PhLac][NMeNva(5-imidazol-1-yl)][Ala(pyrimidin-5-yl)][Nle][Phe(2-F)][Nle]))
EC50: > 50.8 µM

CCCC[C@@H]1NC(=O)[C@H](Cc2cccnc2)NC(=O)[C@H](CCCF)N(C)C(=O)[C@H](Cc2ccccc2)OC(=O)C23CC(CNC(=O)[C@H](Cc4cccnc4)N(C)C(=O)[C@H](CCCC)NC(=O)[C@H](Cc4ccccc4F)NC1=O)(C2)C3 [compound 239, cyclo(FLac-NMeNvaF-3Pal-Nle-Phe2F-Nle-NMe3Pal-amBCP)] (cyclo([3Pal][Nle][Phe(2-F)][Nle][NMe3Pal][X1][PhLac][X35]))
EC50: 20.7 µM

CCCCC[C@@H]1NC(=O)[C@H](Cc2ccc(OC)cc2)NC(=O)[C@H](CC2CCC2)NC(=O)[C@H](Cc2ccc(NC(=N)N)cc2)NC(=O)CN(CCCNC(=N)N)C(=O)[C@H](Cc2ccccc2)NC(=O)CSC[C@@](C)(C(N)=O)NC(=O)[C@H](Cc2ccccc2)N(C)C1=O [compound 361, cyclo(F-NGnG-Phe4Gn-cBuA-TyrOMe-Ahp-NMeF-aMeCl-ClAc)] ({CH2CO}-F[Gly(N-(CH2)3-guanidino)][Phe(4-guanidino)][Cba]Y(Me)[Ahp(2)][NMeF][αMeC]-NH2; thioether N-8)
EC50: 39.7 µM
